In US4111955A, “N-Trihalomethanesulfenyl carbamoyloximino di-sulfur heterocyclic compounds” (priority 1976, dated 1978):

Key:
Format in all cases: in vivo
[1] = system: southern armyworm (Prodenia eridania, (Cram.)); test: Southern Armyworm Leaf Spray Test; parameters: key to pesticidal activity rating, Armyworm: A: excellent control; B: partial control; C: no control; conditions: 500 parts per million, 3 days
Protocol: Larvae of the southern armyworm (Prodenia eridania, (Cram.)), reared on Tendergreen bean plants at a temperature of 80°±5° F. and a relative humidity of 50±5 percent, constituted the test insects.
The test compounds were formulated by diluting the stock suspension with water to give a suspension containing 500 parts of test compound per million parts of final formulation. Potted Tendergreen bean plants of standard height and age were placed on a revolving turntable and sprayed with 100-110 milliliters of test compound formulation by use of a DeVilbiss spray gun set at 10 psig air pressure. This application, which lasted 25 seconds, was sufficient to wet plants to run-off. As a control, 100-110 milliliters of a water-acetone-emulsifier solution containing no test compound were also sprayed on infested plants. When dry, the paired leaves were separated and each one was placed in a 9 centimeter Petri dish lined with moistened filter paper. Five randomly selected larvae were introduced into each dish and the dishes were closed. The closed dishes were labeled and held at 80°-85° F. for 3 days. Although the larvae could easily consume the whole leaf within 24 hours, no more food was added. Larvae which were unable to move the length of the body, even upon stimulation by prodding, were considered dead. Percent mortality was recorded for various concentration levels.
(§1) In these tests the pesticidal activity of the compounds against aphid, mite, Southern Armyworm, Bean Beetle and House fly was rated as follows:
(§2) The LD50 values shown in the above Table II were determined by testing the compositions over an appropriate concentration range obtained by serial dilution of the stock suspension with water. The percent kill was plotted on log-probit graph paper versus parts per million concentration, and the LD50 read from an eye-fitted line drawn through the resultant points.

[2] = system: two-spotted mite (Tetranychus urticae Koch); test: Mite Foliage Spray Test; parameters: key to pesticidal activity rating, Mite: A: excellent control; B: partial control; C: no control; conditions: 500 parts per million, 6 days
Protocol: Adults and nymphal stages of the two-spotted mite (Tetranychus urticae Koch), reared on Tendergreen bean plants at 80±5 percent relative humidity, were the test organisms. Infested leaves from a stock culture were placed on the primary leaves of two bean plants 6 to 8 inches in height, growing in a 21/2 inch clay pot. 150-200 Mites, a sufficient number for testing, transferred from the excised leaves to the fresh plants in a period of 24 hours. Following the 24 hour transfer period, the excised leaves were removed from the infested plants. The test compounds were formulated by diluting the stock suspension with water to give a suspension containing 500 parts of test compound per million parts of final formulation. The potted plants (one pot per compound) were placed on a revolving turntable and sprayed with 100-110 milliliters of test compound formulation by use of a DeVilbiss spray gun set at 40 psig. air pressure. This application, which lasted 25 seconds, was sufficient to wet the plants to run-off. As a control, 100-110 milliliters of a water solution containing acetone and emulsifier in the same concentrations as the test compound formulation, but containing no test compound, were also sprayed on infested plants. The sprayed plants were held at 80±5 percent relative humidity for 6 days, after which a mortality count of motile forms was made. Microscopic examination for motile forms was made on the leaves of the test plants. Any individual which was capable of locomotion upon prodding was considered living.
as §1, §2

[3] = system: house flies (Musca domestica, L.); test: Fly Bait Test; parameters: key to pesticidal activity rating, Housefly: A: excellent control; B: partial control; C: no control; conditions: 500 parts per million, 24 hours
Protocol: Four to 6 day old adult house flies (Musca domestica, L.), reared according to the specifications of the Chemical Specialities Manufacturing Association (Blue Book, McNair-Dorland Co., N.Y. 1954; pages 243-244, 261) under controlled conditions of 80°±5° F. and 50±5 percent relative humidity, were the test insects. The flies were immobilized by anesthetizing with carbon dioxide and twenty five immobilized individuals, males and females, were transferred to a cage consisting of a standard food strainer about 5 inches in diameter which was inverted over a wrapping-paper-covered surface. The test compounds were formulated by diluting the stock suspension with a 10 percent (by weight) sugar solution to give a suspension containing 500 parts of test compound per million parts of final formulation, by weight. Ten milliliters of the test formulation were added to a souffle cup containing a 1-inch square of an absorbent cotton pad. This bait cup was introduced and centered on the blotting paper under the food strainer prior to admitting the anesthetized flies. The caged flies were allowed to feed on the bait for 24 hours, at a temperature of 80°±5° F. and the relative humidity of 50±5 percent.
as §1, §2

[4] = system: Mexican bean beetle (Epilachna varivestis, Muls.); test: Mexican Bean Beetle Leaf Spray Test; parameters: key to pesticidal activity rating, Bean beetle: A: excellent control; B: partial control; C: no control; conditions: leaf spray, 500 parts per million, 3 days
Protocol: Fourth instar larvae of the Mexican bean beetle (Epilachna varivestis, Muls.), reared on Tendergreen bean plants at a temperature of 80°±5° F. and 50±5 percent relative humidity, were the test insects.
The test compounds were formulated by diluting the stock suspension with water to give a suspension containing 500 parts of test compound per million parts of final formulation. Potted Tendergreen bean plants of standard height and age were placed on a revolving turntable and sprayed with 100-110 milliliters of test compound formulation by use of a DeVilbiss spray gun set at 10 psig air pressure. This application, which lasted 25 seconds, was sufficient to wet plants to run-off. As a control, 100-110 milliliters of a water-acetone-emulsifier solution containing no test compound were also sprayed on infested plants. When dry, the paired leaves were separated and each was placed in a 9 centimeter Petri dish lined with moistened filter paper. Five randomly selected larvae were introduced into each dish, and the dishes were closed. The closed dishes were labeled and held at a temperature of 80°±5° F. for 3 days. Although the larvae could easily consume the leaf within 24 to 48 hours, no more food was added. Larvae which were unable to move the length of the body, even upon stimulation, were considered dead.
as §1, §2

[5] = system: bean aphid (Aphis fabae Scop.); test: Bean Aphid Foliage Spray Test; parameters: key to pesticidal activity rating, Aphid: A: excellent control; B: partial control; C: no control; conditions: 500 parts per million, 24 hour
Protocol: Adults and nymphal stages of the bean aphid (Aphis fabae Scop.) reared on potted dwarf nasturtium plants at 65°-70° F. and 50-70 percent relative humidity, constituted the test insects. For testing purposes, the number of aphids per pot was standardized to 100-150 by trimming plants containing excess aphids.
The test compounds were formulated by diluting the stock suspension with water to give a suspension containing 500 parts of test compound per million parts of final formulation.
The potted plants (one pot per compound tested) infested with 100-150 aphids, were placed on a revolving turntable and sprayed with 100-110 milliliters of test compound formulation by use of a DeVilbiss spray gun set at 40 psig. air pressure. This application, which lasted 25 seconds, was sufficient to wet the plants to run-off. As a control, 100-110 milliliters of a water-acetone-emulsifier solution containing no test compound were also sprayed on infested plants. After spraying, the pots were placed on their sides on a sheet of white standard mimeograph paper which had been previously ruled to facilitate counting. Temperature and humidity in the test room during the 24 hour holding period were 65°-70° F. and 50-70 percent, respectively. Aphids which fell onto the paper and were unable to remain standing after being uprighted were considered dead. Aphids remaining on the plants were observed closely for movement and those which were unable to move the length of the body upon stimulation by prodding were considered dead. Percent mortality was recorded for various concentration levels.
as §1, §2

[6] = Peroral toxicity to mammals (rat); conditions: in vivo, po; rat, peroral, Table I; read-out: Rat P.O. LD50
Protocol: Certain of these compositions were also evaluated to determine their peroral toxicity to mammals. The animal selected for this experiment was the rat. The test results obtained are expressed in terms of the number of milligrams of composition per kilogram of weight of the animal required to achieve a mortality rate of 50 percent (LD50).

SMILES | pesticidal activity rating, Armyworm [1] | pesticidal activity rating, Mite [2] | pesticidal activity rating, Housefly [3] | pesticidal activity rating, Bean beetle [4] | pesticidal activity rating, Aphid [5] | LD50 [6] [mg/kg]
CNC(=O)ON=C1SCCSC1C (centres unmarked) [drawing 11 --NHCH3, reference compound] | A | A | A | A | A | –
CN(SC(Cl)(Cl)Cl)C(=O)ON=C1CSC(C)(C)S1 | C | A | A | A | A | –
CN(SC(Cl)(Cl)Cl)C(=O)ON=C1SCCSC1(C)C | A | A | B | A | A | 7.07
CNC(=O)ON=C1CSCS1 [drawing 5 --NHCH3, reference compound] | A | A | A | A | A | 13
CC1SCCSC1=NOC(=O)N(C)SC(Cl)(Cl)Cl (centres unmarked) | A | A | A | A | A | –
CNC(=O)ON=C1CSC(C)(C)S1 [drawing 6 --NHCH3, reference compound] | B | A | A | A | A | –
CCCC1SCCSC1=NOC(=O)NC (centres unmarked) [drawing 9 --NHCH3, reference compound] | C | C | A | A | A | –
CNC(=O)ON=C1SCCSC1(C)C [drawing 7 --NHCH3, reference compound] | A | A | A | A | A | 0.3
CN(SC(Cl)(Cl)Cl)C(=O)ON=C1CSCS1 [4-[(N-METHYL-N-TRICHLOROMETHANESULFENYL)-CARBAMOYLOXIMINO]-1,3-DITHIOLANE] | A | A | A | A | A | 75
CNC(=O)ON=C1C[S+]([O-])CCS1 (centres unmarked) [drawing 10 --NHCH3, reference compound] | A | A | A | A | C | 12.3
CN(SC(F)(F)F)C(=O)ON=C1CSCCS1 [2-O-[(N-METHYL-N-TRIFLUOROMETHANESULFENYL)-CARBAMOYLOXIMINO]-1,4-DITHIANE] | A | A | A | A | A | –
CN(SC(Cl)(Cl)Cl)C(=O)ON=C1C[S+]([O-])CCS1 (centres unmarked) [2-O-[(N-METHYL-N-TRICHLOROMETHANESULFENYL) CARBAMOYLOXIMINO]-1,4-DITHIANE-4-OXIDE] | A | A | A | A | A | 28.3
CCCC1SCCSC1=NOC(=O)N(C)SC(Cl)(Cl)Cl (centres unmarked) | C | C | A | A | B | –
